# Data published in US20230060873A1, “COMPOUNDS AND METHODS FOR FORMING ION CHANNELS IN BIOLOGICAL MEMBRANES” (Washington University, priority 2021, published 2023).
# How the values were obtained:
# [1] = tested on: B. subtilis membranes; assay: DiSC3(5) depolarization assay, MAcBCE/MAkBCE; type: cell-based, Bacillus subtilis; settings: 2 μM compound, 60 mM KCl, NaCl or NMDG-Cl; for change in DiSC3(5) fluorescence (membrane depolarization): 25° C, 10 minutes
# Description: A 2 mL liquid culture of transformed B. subtilis cells was grown at 37° C. in LB medium supplemented with 5 μg/mL kanamycin until OD600=0.6 was reached. The cells were collected by centrifugation at 2000 rpm over 3 min. The bacteria were washed twice with an NMDG-MeSO3 solution (100 mM NMDG, 10 mM HEPES, pH adjusted to 7.4 with methane sulfonic acid). […] The working dye solution was a 200 μM solution of DiSC3(5) (3,3′-dipropylthiadicarbocyanine iodide; Tokyo Chemical Industry) in DMSO. A series of 2 M solutions of NMDG-Cl, NaCl and KCl were prepared containing 10 mM HEPES; the pH was adjusted to pH 7.4 with NMDG, NaOH or KOH, respectively, to avoid any pH changes after their addition. The experiment was initiated with 3 mL of NMDG-MeSO3 in a quartz cuvette, then 5 μL of the dye solution was added (timepoint t1, 50 sec) for a 0.3 μM final concentration by the end of experiment. This was followed by the addition of 100 μL of the B. subtilis suspension (timepoint t2, 100 sec). After 150 sec (timepoint t3, 250 sec), the fluorescence stabilized to a minimum intensity and 100 μL of the 2 M NMDG-Cl, NaCl or KCl solution was added to reach ˜60 mM final concentration of the salt. The final step was the addition 0.64 μL of a 10 mM stock solution of the desired MAcBCE or MAkBCE compound in TFE (timepoint t4, 400 sec), for a final concentration of 2 μM. Negative controls were performed by adding the same volume of pure TFE to the cuvette at timepoint t4. Fluorescence intensity was recorded each second using a Horiba Fluoromax 4 spectrometer (λexcitation=640 nm; λemission=670 nm). The solution inside the cuvette was vigorously mixed throughout the experiment by using a magnetic stirrer and the temperature was kept constant at 25° C. For purposes of normalization, the fluorescence intensity was divided by the fluorescence level just before timepoint t2.
# To determine whether MAcBCE or MAkBCE compounds catalyse ion-selective flux, a set of highly bioactive members bearing ten-carbon chain lengths were tested for their ability to depolarize B. subtilis membranes using a test based on the fluorescent dye 3,3-dipropylthiadicarbocyanine (DiSC3(5)). This set of compounds were selected as four of the most toxic members of the MAcBCE and MAkBCE compound library (5-O-10, 5-A-10, 6-O-10, and 6-A-10; FIG. 3) belong to this group and all are soluble in TFE. The two non-toxic benzo(12-crown-4) scaffold members (4-O-10 and 4-A-10; FIG. 3) were used as controls.
# FIGS. 4 and 5 show the time course of DiSC3(5) fluorescence due to the addition of 2 μM 6-A-10 (FIG. 4) and 6-O-10 (FIG. 5). The average of the final fluorescence values (mean±S.E.M.) of at least three experiments are shown in FIGS. 4 and 5 and are similarly plotted for 4-A-10 (FIG. 6), 5-A-10 (FIG. 7), 6-A-10 (FIG. 8), 4-O-10 (FIG. 9), 5-O-10 (FIG. 10), and 6-O-10 (FIG. 11). Experiments were performed in a NMDG-MeSO3 solution (100 mM NMDG, 10 mM HEPES, pH adjusted to 7.4 with methane sulfonic acid). The events are: t1, addition of dye; t2, addition of B. subtilis; t3, addition of a 2 M NMDG-Cl, 2 M NaCl or a 2 M KCl solution up to a final concentration of 60 mM; t4, addition of each MAcBCE or MAkBCE compound up to 2 μM. Experiments were repeated at least four times per condition and normalized relative to the fluorescence intensity just before the addition of cells.
# The potentiometric dye DiSC3(5) was used to measure the ability of MAcBCE and MAkBCE compounds to catalyse ion-selective transport. DiSC3(5) undergoes membrane voltage-dependent partitioning between the intracellular and the extracellular medium. DiSC3(5) accumulates within a cell with a polarized membrane (negatively charged inside the cell) and is released when the cell membrane is depolarized (positively charged inside the cell). The membrane voltage in B. subtilis is roughly −120 mV, leading to DiSC3(5) accumulation in the bacteria (timepoint t2 in FIG. 4A-B). […]
# [2] = tested on: Bacillus subtilis; assay: Toxicity (MIC) of MAcBCE and MAkBCE compounds on B. subtilis; type: cell-based; settings: B. subtilis 168 WT with pRB374, 12 h, up to 400 μM
# Description: XL1 blue strain Escherichia coli cells transformed with pET28a plasmid containing a kanamycin resistance gene, were grown at 37° C. in 2 mL of LB medium (Miller's LB broth, Research Products International) supplemented with 50 μg/mL of kanamycin, until the optical density (OD600) reached 0.6. The starting density of bacteria in the remainder of the experiments was a 1/100 dilution of this bacterial density, which was split into 4 mL cultures. A series of 400, 100, 10 and 5 mM stock solutions of each monoacylated benzo(crown-ether) (MAcBCE) and monoalkylated benzo(crown-ether) (MAkBCE) compounds in trifluoroethanol (TFE) were diluted by addition to the 4 mL cultures to reach final concentrations of 400, 200, 100, 50, 20, 15, 10, 5, 4, 3, 2 and 1 μM. The final TFE concentration was never higher than 0.1% v/v. Negative controls in the presence of TFE 0.1% v/v or in the absence of any treatment for each batch gave similar bacterial growth. The cultures were incubated at 37° C. with agitation for 12 h. Bacillus subtilis (168 WT) toxicity tests were carried out using an identical protocol, except they were transformed with the shuttle plasmid pRB374 in the presence of 5 μg/mL of kanamycin. […] Each compound was assayed a minimum of three times at each tested concentration.
# The cytotoxicity of MABCE compounds was determined by measuring the MIC in liquid cultures of either the gram-negative bacteria Escherichia coli or the gram-positive bacteria Bacillus subtilis. […] As some curves overlap, portions of them are hidden. Values of MIC of 400 μM indicate that the value was either 400 μM, or it was higher and then was not determined. Each compound was assayed a minimum of three times at each different concentration. MICs for 5-A-4, 5-A-11, 6-A-11 and 6-O-11 could not be determined because the compounds were not soluble in TFE. While E. coli was not susceptible to any of the tested compounds at concentrations as high as 400 μM (data not shown), B. subtilis was susceptible to MABCE compounds bearing 15-crown-5 and 18-crown-6 scaffolds, but not to compounds containing a 12-crown-4 scaffold, as shown in FIG. 1.
# [3] = Solubility in trifluoroethanol (TFE); type: physicochemical; settings: trifluoroethanol stock solutions
# [4] = tested on: Bacillus subtilis; assay: Toxicity (MIC) of dialkylated lariat ethers on B. subtilis; type: cell-based; settings: B. subtilis 168 WT, 12 h, visual turbidity, read-out: minimum inhibitory concentration (MIC)
# Description: The cyto-toxicity was determined by measuring the minimum inhibitory concentrations (MIC) for this series of dialkylated lariat ethers in the Gram-negative bacteria Escherichia coli, the Gram-positive bacteria Bacillus subtilis, and human embryonic kidney (HEK293T) cells.
# On bacteria. XL1 blue strain Escherichia coli cells transformed with a pET28a plasmid (which contains a kanamycin resistance gene) were grown at 37° C. in 2 mL of LB medium (Miller's LB broth, Research Products International) supplemented with 50 μg/mL of kanamycin until the optical density (600 nm) reached 0.600. The starting density of bacteria in the remainder of the experiments was a 1/100 dilution of this bacterial density, which was split into 4 mL cultures. A series of 400, 100, 10 and 5 mM stock solutions of each dialkylated diaza(18-crown-6) compounds in trifluoroethanol (TFE) were diluted by adding to the 4 mL cultures until final concentrations of 400, 200, 100, 50, 20, 15, 10, 5, 4, 3, 2 and 1 μM were reached, with the final TFE concentration never >0.1% v/v. Negative controls in the presence of TFE 0.1% v/v or the absence of any treatment were done for each batch. The cultures were incubated at 37° C. with agitation for 12 h. Bacillus subtilis (168 WT) toxicity tests were carried out using an identical protocol, except for the addition of the antibiotic. […] Each compound was assayed a minimum of three times at each tested concentration.
# [5] = Planar lipid bilayer ion channel recordings; type: biochemical; settings: 2 μM; bilayer clamped at 100 mV; 150 mM KCl, 10 mM HEPES, pH 7.4
# Description: Experiments in planar lipid bilayers were performed via a Nanion Orbit-mini planar bilayer system. The planar membranes were formed by painting a 25 mg/mL solution of lipids in n-nonane over the four 50 μm apertures on the chip. The lipids used were asolectin from soybean (Sigma-Aldrich) or a 3:1 w/w mix of 1-palmitoyl-2-oleoyl-sn-glycero-3-phosphoethanolamine (POPE) and 1-palmitoyl-2-oleoyl-sn-glycero-3-phospho-(1′-rac-glycerol) (POPG) (Avanti Polar lipids). The solutions tested were KCl solution (150 mM KCl, 10 mM HEPES, pH adjusted to 7.4 with KOH), NaCl solution (150 mM NaCl, 10 mM HEPES, pH adjusted to 7.4 with NaOH), and a concentrated KCl solution (500 mM KCl, 10 mM HEPES, pH adjusted to 7.4 with KOH). When the appropriate membrane formed, the voltage was clamped at 100 mV or −100 mV, and a stock solution of gramicidin D (Sigma-Aldrich) in DMSO or LEC10 in TFE were added up to the desired concentration. The tested concentration of gramicidin D was 1 nM and 2, 10, 100 and 200 μM were tested for LEC10. Two different temperatures were tested for each condition: 25 and 37° C. The current was recorded over 10 min for the gramicidin test and up to 1 h for the LEC10 test. The data was analyzed with Clampfit 10.7 software (Axon Instruments).
# FIGS. 41 and 42 show the lipid bilayer recordings. Current through the asolectin planar lipid bilayer clamped at 100 mV was recorded in the presence of […] (FIG. 41) and 2 μM LEC10 (FIG. 42). In both cases, the solution was 150 mM KCl, 10 mM HEPES, pH 7.4. […] This lack of unitary channel formation, or even a carrier-like increase of the conductance, precludes an ionophore-like mechanism of ion transport.
solubility in TFE [3],Compound,"toxicity / susceptibility of B. subtilis (MIC, FIG. 1) [2]",further results
,"CCCCCCCCCCc1ccc2c(c1)OCCOCCOCCO2 [Compound 4-A-10, 12-decyl-2,3,5,6,8,9-hexahydrobenzo[b][1,4,7,10]tetraoxacyclododecine]",non-toxic,change in DiSC3(5) fluorescence (membrane depolarization) [1]: negligible
,"CCCCCCCCCC(=O)c1ccc2c(c1)OCCOCCOCCO2 [Compound 4-O-10, 1-(2,3,5,6,8,9-hexahydrobenzo[b][1,4,7,10]tetraoxacyclododecin-12-yl)decan-1-one]",non-toxic,change in DiSC3(5) fluorescence (membrane depolarization) [1]: negligible
not soluble,"CCCCc1ccc2c(c1)OCCOCCOCCOCCO2 [Compound 5-A-4, 15-butyl-2,3,5,6,8,9,11,12-octahydrobenzo[b][1,4,7,10,13]pentaoxacyclopentadecine]",,
,"CCCCCCCCCCc1ccc2c(c1)OCCOCCOCCOCCO2 [Compound 5-A-10, 15-decyl-2,3,5,6,8,9,11,12-octahydrobenzo[b][1,4,7,10,13]pentaoxacyclopentadecine]",most toxic,"kinetics of the depolarization, ion dependence [1]: fastest in presence of K^+ followed by Na^+ and then NMDG^+"
not soluble,"CCCCCCCCCCCc1ccc2c(c1)OCCOCCOCCOCCO2 [Compound 5-A-11, 15-undecyl-2,3,5,6,8,9,11,12-octahydrobenzo[b][1,4,7,10,13]pentaoxacyclopentadecine]",,
,"CCCCCCCCCC(=O)c1ccc2c(c1)OCCOCCOCCOCCO2 [Compound 5-O-10, 1-(2,3,5,6,8,9,11,12-octahydrobenzo[b][1,4,7,10,13]pentaoxacyclopentadecin-15-yl)decan-1-one]",most toxic,"kinetics of the depolarization, ion dependence [1]: fastest in presence of K^+ followed by Na^+ and then NMDG^+"
not soluble,"CCCCCCCCCCCc1ccc2c(c1)OCCOCCOCCOCCOCCO2 [Compound 6-A-11, 18-undecyl-2,3,5,6,8,9,11,12,14,15-decahydrobenzo[b][1,4,7,10,13,16]hexaoxacyclooctade-cine]",,
not soluble,"CCCCCCCCCCC(=O)c1ccc2c(c1)OCCOCCOCCOCCOCCO2 [Compound 6-O-11, 1-(2,3,5,6,8,9,11,12,14,15-decahydrobenzo[b][1,4,7,10,13,16]hexaoxacyclooctadecin-18-yl)undecan-1-one]",,
,"CCCCCCCCCCCN1CCOCCOCCN(CCCCCCCCCCC)CCOCCOCC1 [LEC11, Diundecyl diaza(18-crown-6)]",,MIC [4]: 2 µM
,"CCCCCCCCCCCCN1CCOCCOCCN(CCCCCCCCCCCC)CCOCCOCC1 [LEC12, Didodecyl diaza(18-crown-6)]",,MIC [4]: 2 µM
,"CCCCCCCCCCCCCN1CCOCCOCCN(CCCCCCCCCCCCC)CCOCCOCC1 [LEC13, Ditridecyl diaza(18-crown-6)]",,MIC [4]: > 400 µM
,gramicidin D,,ion channel activity [5]: unitary channels
